Measurements reported in PubChem BioAssay (NCI).
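Step 1: Grow cells in 96-well plates. Step 2: Expose to compound for 48 hours at 5 concentrations. Step 3: Interpolate endpoints linearly; if unreached, use highest concentration. Abbreviation: GI50, concentration required for 50% inhibition of growth. TGI: concentration producing complete growth inhibition.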 Where a SMILES comes first, the peptide text is derived from it. Bridges are numbered along the chain shown (N, C = ends). [ ]: non-standard residue; d: D form. The star is where a group is joined. Phe(3,5-F2) = N[C@@H](Cc1cc(F)cc(F)c1)C(=O)O; Pro(4R-Me) = C[C@H]1CN[C@H](C(=O)O)C1; aThr = C[C@H](O)[C@H](N)C(=O)O; Pip = O=C(O)[C@@H]1CCCCN1; X7 = CCC/C=C/C=C/C(=O)*

Tests used:
Test in all cases: inhibition of tumour cell growth, NCI panel, 48 h
[1] = system: NCI-H23 lung
[2] = system: NCI-H460 lung
[3] = system: NCI-H522 lung
[4] = system: NCI/ADR-RES ovarian
[5] = system: OVCAR-3 ovarian
[6] = system: OVCAR-4 ovarian
[7] = system: OVCAR-5 ovarian
[8] = system: OVCAR-8 ovarian
[9] = system: PC-3 prostate
[10] = system: RPMI-8226 leukemia
[11] = system: RXF 393 renal
[12] = system: SF-268 CNS
[13] = system: SF-295 CNS
[14] = system: SF-539 CNS
[15] = system: SK-MEL-2 melanoma
[16] = system: SK-MEL-28 melanoma
[17] = system: SK-MEL-5 melanoma
[18] = system: SK-OV-3 ovarian
[19] = system: SN12C renal
[20] = system: SNB-19 CNS
[21] = system: SNB-75 CNS
[22] = system: SR leukemia
[23] = system: SW-620 colon
[24] = system: T-47D breast
[25] = system: TK-10 renal
[26] = system: U251 CNS
[27] = system: UACC-257 melanoma
[28] = system: UACC-62 melanoma
[29] = system: UO-31 renal

CCC/C=C/C=C/C(=O)N[C@@H](Cc1cc(F)cc(F)c1)C(=O)N[C@@H]1C(=O)N2CCC[C@H]2C(=O)N2CCCC[C@H]2C(=O)N[C@@H](C)C(=O)N2C[C@H](C)C[C@H]2C(=O)O[C@H]1C (X7-[Phe(3,5-F2)][aThr]P[Pip]A[Pro(4R-Me)]; ester 2-C)
GI50 [1]: 389 nM | TGI [1]: 13400 nM | GI50 [2]: 500 nM | TGI [2]: 14100 nM | GI50 [3]: 462 nM | TGI [3]: 13000 nM | GI50 [4]: 2170 nM | TGI [4]: 16100 nM | GI50 [5]: 596 nM | TGI [5]: 17100 nM | GI50 [6]: 395 nM | TGI [6]: 19300 nM | GI50 [7]: 583 nM | TGI [7]: 6130 nM | GI50 [8]: 414 nM | TGI [8]: > 46800 nM | GI50 [9]: 367 nM | TGI [9]: 17200 nM | GI50 [10]: 339 nM | TGI [10]: 4760 nM | GI50 [11]: 1500 nM | TGI [11]: 8290 nM | GI50 [12]: 957 nM | TGI [12]: > 46400 nM | GI50 [13]: 358 nM | TGI [13]: 2030 nM | GI50 [14]: 744 nM | TGI [14]: 13500 nM | GI50 [15]: 422 nM | TGI [15]: 5100 nM | GI50 [16]: 987 nM | TGI [16]: 14100 nM | GI50 [17]: 509 nM | TGI [17]: 3310 nM | GI50 [18]: 499 nM | TGI [18]: 12800 nM | GI50 [19]: 419 nM | TGI [19]: 15500 nM | GI50 [20]: 405 nM | TGI [20]: 35200 nM | GI50 [21]: 313 nM | TGI [21]: 12700 nM | GI50 [22]: 892 nM | TGI [22]: 26400 nM | GI50 [23]: 704 nM | TGI [23]: > 46100 nM | GI50 [24]: 453 nM | TGI [24]: 13900 nM | GI50 [25]: 1050 nM | TGI [25]: 43700 nM | GI50 [26]: 451 nM | TGI [26]: 16500 nM | GI50 [27]: 356 nM | TGI [27]: 4160 nM | GI50 [28]: 522 nM | TGI [28]: 6370 nM | GI50 [29]: 1080 nM | TGI [29]: 27500 nM
